# Test results published in US20250283073A1 (ORNA THERAPEUTICS, INC., priority 2021, published 2025).
# Assays:
# splenic immune cells = test: Cre circRNA LNP transfection of splenic immune cells in Ai9 Cre reporter mice (tdTomato); type: in vivo; settings: 0.5 mg/kg Cre RNA LNPs i.v., 48 hours
# Procedure: Circular RNAs encoding Cre recombinase (Cre) are encapsulated into lipid nanoparticles as previously described. Female, 6-8 week old B6.Cg-Gt(ROSA)26Sortm9(CAG-tdTomato)Hze/J (Ai9) mice were dosed with lipid nanoparticles at 0.5 mg/kg RNA intravenously. Fluorescent tdTomato protein was transcribed and translated in Ai9 mice upon Cre recombination, meaning circular RNAs have been delivered to and translated in tdTomato+ cells. After 48 hr, mice were euthanized and the spleens were harvested, processed into a single cell suspension, and stained with various fluorophore-conjugated antibodies for immunophenotyping via flow cytometry.
# Ai9 mice (B6.Cg-Gt(ROSA)26Sortm9(CAG-tdTomato)Hze/J, female, 6-8 weeks, n=3 per group) were injected i.v. with 0.5 mg/kg Cre circRNA LNPs or PBS. Ai9 mice transcribe and translate the fluorescent reporter tdTomato upon Cre recombination; meaning cells which are tdTomato+ have successfully been transfected with Cre circRNA. […] Flow cytometry was performed using an Attune Nxt Flow Cytometer (Thermo).
# primary human T cells = test: FLuc circRNA LNP transfection of activated primary human T cells with or without ApoE3; type: cell-based; settings: 200 ng RNA/well, 24 hours, 4 donors
# Procedure: Primary human T cells from independent donors were stimulated with aCD3/aCD28 and allowed to proliferate for 6 days in the presence of human serum and IL-2. Then, 100,000 cells were plated in a 96 well plate and LNPs containing circRNA coding for Firefly Luciferase (FLuc) were added to the cells at 200 ng RNA/well with or without Apolipoprotein E3 (ApoE3). After 24-hour incubation, luminescence was quantified using the Bright-Glo Luciferase Assay System (Promega) according to manufacturer's instructions and background luminescence from cells not treated with LNPs was subtracted. […] (See Example 70 for LNP formulation procesure, e.g., for 10a-27 (5.7A), 10a-26 (5.7A), 10a-27 (4.5D), and 10a-26 (4.5D) LNPs.)
smiles,measurement,setting,value
"CCCCCCCCC(CCCCCC)C(=O)OCCCCCCN(CCCCCCOC(=O)C(CCCCCC)CCCCCCCC)CCCn1ccnc1C (centres unmarked) [Lipid 10a-27, ((3-(2-methyl-1H-imidazol-1-yl)propyl)azanediyl)bis(hexane-6,1-diyl) bis(2-hexyldecanoate)]",tdTomato+ splenic immune cells,splenic immune cells,transfect significantly more splenic immune cells than those made with Lipid 10a-46
same,Firefly luminescence,primary human T cells,generally produced higher luminescence than those containing Lipid 10a-26
